In paper PMC8296985, “A Covalent Calmodulin Inhibitor as a Tool to Study Cellular Mechanisms of K-Ras-Driven Stemness” (Frontiers in Cell and Developmental Biology, 2021):
Read-outs that look alike come from different tables or passages of the source.

What was measured:
[1] = test system: Ca^2+/CaM-dependent cyclic nucleotide phosphodiesterase; parameters: method as in Itoh and Hidaka, 1984; Zimmer and Hofmann, 1984; conditions: ref Itoh and Hidaka, 1984, Zimmer and Hofmann; cited from earlier work
[2] = molecular target: calmodulin (CaM) (Bos taurus, UniProt P62157); test: Fluorescence polarization assay, displacement of F-PMCA peptide from CaM
Description: Compounds were threefold-diluted in an assay buffer (20 mM Tris Cl pH 7.5, 50 mM NaCl, 1 mM CaCl2, and 0.005% Tween 20), and a complex of 100 nM CaM and 10 nM F-PMCA peptide was added. […] Then the plate was incubated overnight at 4°C, and the next day, final readings were taken after a total of 24 h incubation. The fluorescence anisotropy was calculated and plotted against the logarithm of the compound concentration and fit to the log inhibitor vs. response–variable slope (four parameters) equation in Prism (GraphPad).
The potency and selectivity of a covalent inhibitor are governed by two parameters, namely, Ki, the dissociation constant of the initial non-covalent complex, and k2, the rate of the subsequent covalent bond-forming reaction as given in the chemical equation
E and I denote a protein target and its covalent inhibitor, respectively. E ⋅ I is the initial non-covalent complex, and E – I is the final covalent complex. […] This was repeated for several inhibitor concentrations. Then, kobs was plotted against the concentration of the inhibitor, and the data were fit to a hyperbolic equation kobs=k2×[I]/Ki+[I] to obtain Ki and k2. The ratio of k2/Ki represents the second-order rate constant of the reaction of the covalent inhibitor with the target.

[3] = molecular target: T1, mutCaM (CaM with K75Q, K77Q, and K148Q mutations) (Homo sapiens, UniProt P0DP23, K76Q/K78Q); test: Fluorescence polarization assay with F-CaMKII peptide and His-mutCaM; format: binding; conditions: 50 nM His-mutCaM, 5 nM F-CaMKII, compared to wt CaM
T1 construct: made in house; host or cells: E. coli BL21 Star (DE3)pLysS
Description: Our numbering of CaM follows ([Kong Au and Chow Leung, 1998]) with Ala being the first amino acid in human CaM, as the N-terminal methionine of CaM is removed in most organisms ([Halling et al., 2016]). […] At A600 of 0.6–0.8, the culture was induced with 0.5 mM of isopropyl β-D-thiogalactopyranoside and expressed for 16 h at 25°C. Cells were collected by centrifugation and incubated on ice for 30 min. The cell suspension was sonicated in a lysis buffer (20 mM HEPES, pH 7.6, 150 mM NaCl, 5 mM MgCl2, 0.5 mg/ml lysozyme, and DNase I). The lysates were clarified by centrifugation at 18,000 g for 30 min at 4°C. The soluble fractions were subjected to protein purification.

[4] = molecular target: T2, K-RasG12V/CaM (Homo sapiens, UniProt P0DP23); test: Rluc8-K-RasG12V/GFP2-CaM interaction BRET in HEK293-EBNA cells; format: cell-based; conditions: 24-h exposure, A/D plasmid ratio 9/1; read-out: IC50 of Rluc8-K-RasG12V/GFP2-CaM BRET signal
T2 construct: expressed in transfected cells; host or cells: HEK293-EBNA
Description: BRET assays were essentially performed as described by others ([Lavoie et al., 2013]; [Bery et al., 2018]). About 100,00–150,000 HEK293-EBNA ([Meissner et al., 2001]) cells were seeded per well of a 12-well plate in 1 ml of DMEM containing 10% FBS and 2 mM L-glutamine and were grown for 24 h. Next day, Rluc8-tagged donor and GFP2-tagged acceptor constructs were transfected into cells using a jetPRIME transfection reagent (cat. no. 114-75, Polyplus). Each well was transfected with about 1 μg of plasmid DNA using 3 μl of the jetPRIME reagent. For BRET donor saturation titration experiments, the concentration of donor plasmid (25 ng) was kept constant, and the concentration of acceptor plasmid was increased from 0 to 500 ng for RasG12V BRET pairs and 0–1,000 ng for K-Ras/CaM BRET pairs. The empty pcDNA3.1(-) plasmid was used to top-up the total DNA load per transfection. After 24 h of transfection, cells were treated with compounds or vehicle control (DMSO 0.2% v/v in a growth medium) at the specified concentration for 24 h or the stipulated time period in case of the time-course experiments. The cells from one well of a 12-well plate were collected, washed, and re-plated in PBS (cat. no. 14190-094, Gibco, Thermo Fisher Scientific) on flat bottom, white 96-well plates (cat. no. 236108, Nunc, Thermo Fisher Scientific) as four technical replicates containing 90 μl of cell suspension per well. Then fluorescence intensity followed by BRET readings were carried out on a Clariostar (BMG Labtech) plate reader at 25°C. The fluorescence intensity (RFU) of GFP2 was measured with excitation at 405 ± 10 nm and emission 515 ± 10 nm; it is proportional to the acceptor concentration [acceptor]. BRET readings were taken well by well by adding 10 μl of 100 μM coelenterazine 400a (cat. no. C-320, GoldBio), the Rluc8 substrate to each well (final concentration of 10 μM) using the injector present in the plate reader. Luminescence emission intensities were simultaneously recorded at 410 ± 40 nm (RLU, proportional to [donor]) and 515 ± 15 nm (BRET signal).
The raw BRET ratio was calculated as the BRET signal measured at 515 nm divided by the emission signal measured at 410 nm (RLU). The BRET ratio was obtained by subtracting the raw BRET ratio by a background BRET signal measured for cells expressing only the donor ([Bacart et al., 2008]) as indicated in the formula below:
For BRET donor saturation titration experiments, the BRET ratio was plotted against the [acceptor]/[donor] ratio. Technical repeat data points were averaged, and data points from all biological repeats were collected into one graph for subsequent fitting. The BRET ratio vs. relative expression data were fitted using a binding saturation equation in the Prism (GraphPad) software to obtain BRETmax and BRET50 using the equation y=BRETmax×x/BRET50+x , where x is the relative expression and y is the BRET ratio. BRETmax represents the maximum saturation BRET signal and depends on the structural parameters (distance, orientation) of the BRET complex. BRET50 corresponds to the ratio of the acceptor construct over the donor construct required to attain 50% of the maximum BRET signal and is a measure of the effective relative affinity between the interacting BRET pair ([Marullo and Bouvier, 2007]).

[5] = test system: Hs 578T; test: 3D spheroid (tumorosphere) formation assay, low attachment, serum-free, alamarBlue; format: cell-based; conditions: Homo sapiens
Description: (§1) 3D spheroid formation assays were performed in 96-well low-attachment, suspension culture plates (cat. no. 655185, Cellstar, Greiner Bio-One) under serum-free condition. About 1,000 (MDA-MB-231, NCI-H358, and MIA PaCa-2) or 2,500 (Hs 578T) cells per well were seeded in 50 μl of either an RPMI medium (cat. no. 52400-025, Gibco, Thermo Fisher Scientific) (MDA-MB-231, A375, and NCI-H358) or DMEM (cat. no. 41965-039, Gibco, Thermo Fisher Scientific) (Hs 578T and MIA PaCa-2), containing 0.5% MethoCult (cat. no. SF H4636, Stemcell technologies), 1x B27 (cat. no. 17504044, Gibco, Thermo Fisher Scientific), 25 ng/ml EGF (cat. no. E9644, Sigma-Aldrich), and 25 ng/ml FGF (cat. no. RP-8628, Thermo Fisher Scientific). Cells were cultured for 3 days and then treated with compounds or vehicle control (DMSO 0.1% v/v in growth medium) for another 3 days. The cells were supplemented with a fresh growth medium on the third day together with the drug treatment. For knockdown experiments, cells were seeded in 12-well plates and treated with either 50 nM scrambled siRNA (cat. no. 1022076, QIAGEN) or indicated concentrations of siRNAs. Next day, cells were collected by trypsinization and re-plated into 96-well plates for 3D spheroid suspension culture.
(§2) Spheroid formation efficiency was analyzed by an alamarBlue assay reagent (cat. no. DAL1100, Thermo Fisher Scientific). A 10% final volume of the alamarBlue reagent was added to each well of the plate and incubated for 4 h at 37°C. Then the fluorescence intensity was measured using the FLUOstar OPTIMA plate reader (BMG Labtech, Germany) with an excitation wavelength of 560 ± 5 nm and an emission wavelength of 590 ± 5 nm.
(§3) To quantitatively profile the drug sensitivity with a more robust parameter than the IC50 or EC50 values, the drug sensitivity score (DSS) analysis was employed. DSS values are essentially normalized area under the curve (AUC) measures of dose-response inhibition data ([Yadav et al., 2014]). Drug response data files (in Excel) ready for online analysis were prepared according to the example file obtained from the DSS pipeline website, called Breeze^1 ([Potdar et al., 2020]). Either raw fluorescence intensity measurements or normalized % inhibition data (for BRET assay analysis) were uploaded.
(§4) DSS3 was employed to emphasize drugs that obtain their response area over a relatively wide dose window, as compared to drugs that show increased response only at the higher end of the concentration range. After logistic fitting of the dose-response inhibition data, the area under the curve (AUC) was determined as the exact solution. A 10% minimal activity threshold (t) was set. The maximum (Cmax) and minimum (Cmin) concentrations were used for screening of the inhibitors, with Cmax = x2 and x1 concentration with minimal activity t.

[6] = test system: MDA-MB-231; test: as above; format: cell-based; conditions: for IC50: Homo sapiens
Description: as §1, §2, §3, §4

[7] = test system: H-RasG12V; test: H-RasG12V nanoclustering-BRET assay in HEK293-EBNA cells; format: cell-based; conditions: FTI-277 1 μM, 24 h
Description: BRET assays were essentially performed as described by others ([Lavoie et al., 2013]; [Bery et al., 2018]). About 100,00–150,000 HEK293-EBNA ([Meissner et al., 2001]) cells were seeded per well of a 12-well plate in 1 ml of DMEM containing 10% FBS and 2 mM L-glutamine and were grown for 24 h. Next day, Rluc8-tagged donor and GFP2-tagged acceptor constructs were transfected into cells using a jetPRIME transfection reagent (cat. no. 114-75, Polyplus). Each well was transfected with about 1 μg of plasmid DNA using 3 μl of the jetPRIME reagent. […] Then fluorescence intensity followed by BRET readings were carried out on a Clariostar (BMG Labtech) plate reader at 25°C. The fluorescence intensity (RFU) of GFP2 was measured with excitation at 405 ± 10 nm and emission 515 ± 10 nm; it is proportional to the acceptor concentration [acceptor]. BRET readings were taken well by well by adding 10 μl of 100 μM coelenterazine 400a (cat. no. C-320, GoldBio), the Rluc8 substrate to each well (final concentration of 10 μM) using the injector present in the plate reader. Luminescence emission intensities were simultaneously recorded at 410 ± 40 nm (RLU, proportional to [donor]) and 515 ± 15 nm (BRET signal).
The raw BRET ratio was calculated as the BRET signal measured at 515 nm divided by the emission signal measured at 410 nm (RLU). […]

SMILES: NCCCCCCNS(=O)(=O)c1cccc2c(Cl)cccc12 [Compound W-7]
- concentration inhibiting CaM targets [1]: > 100 µM

SMILES: Cc1c(N2CCCCC2)c2c(=O)c(C(F)(F)F)cc3ccc(C(C)C)cc1c32 [Compound 8]
- Kd [2]: 3.1 µM
- Ki [2]: 39 µM
- kinact/KI ([2]; read-out: k2/Ki second-order rate constant): 2.5 M⁻¹ s⁻¹
- binding to mutCaM over time [3]: same binding affinity for wt CaM and mutCaM over time
- IC50 [4]: 70 ± 11 µM
- IC50 ([5]; 72 h, Hs 578T (H-RasG12D) 3D tumorosphere, 3 days treatment, read-out: IC50): 10.6 µM
- IC50 ([5]; Hs 578T 3D tumorosphere, log scale, read-out: logIC50 ± SD (converted)): 10.5 µM
- IC50 ([6]; 72 h, MDA-MB-231 (K-RasG13D) 3D tumorosphere, 3 days treatment, read-out: IC50): 32.4 µM
- IC50 ([6]; MDA-MB-231 3D tumorosphere, log scale, read-out: logIC50 ± SD (converted)): 31.6 µM
- KRAS/HRAS mutant cell line DSS3 ratio ([6]; MDA-MB-231 vs Hs 578T 3D spheroid formation, 0.6–40 μM, numbers above bars Fig. 1A,B): 1.5

SMILES: COC(=O)[C@H](CCSC)NC(=O)c1ccc(NC[C@@H](N)CS)cc1-c1ccccc1 [FTI-277]
- H-Ras selective decrease of nanoclustering-BRET [7]: 1.4 fold
